In patent US12226409B2, “Treatment of hepatocellular carcinoma” (Eisai R&D Management Co., Ltd., priority 2017, dated 2025):

Assays:
Dissociation constant = assay type: physicochemical; details: 25° C.
Solubility = assay type: physicochemical
[1] = tested on: unresectable hepatocellular carcinoma (HCC); test: REFLECT study, efficacy per independent review; assay type: in vivo, human
Description: The efficacy of LENVIMA was evaluated in a randomized, open-label, multicenter, international study (REFLECT; […]) conducted in patients with previously untreated unresectable hepatocellular carcinoma (HCC).

[2] = tested on: patients with unresectable HCC; test: Open-label phase 3 study, safety and side-effect profile (CTCAE v4.0); details: in vivo
Description: Randomization was stratified according to region (Asia-Pacific or Western regions), macroscopic portal vein invasion and/or extrahepatic spread (yes or no), Eastern Cooperative Oncology Group performance status (0 or 1), and body weight (<60 kg or ≥60 kg).
Safety assessments included recording of vital signs, hematologic and biochemical laboratory testing, urinalysis, and electrocardiography.

Partition coefficient = assay type: physicochemical; details: read-out: partition coefficient (log P value)

COc1cc2nccc(Oc3ccc(NC(=O)NC4CC4)c(Cl)c3)c2cc1C(N)=O [LENVIMA, 4-[3-chloro-4-(N′-cyclopropylureido)phenoxy]-7-methoxyquinoline-6-carboxamide methanesulfonate]
pKa (Dissociation constant): 5.05 | solubility in ethanol (dehydrated) (Solubility): practically insoluble | solubility in water (Solubility): slightly soluble | Median PFS ([1]; RECIST 1.1, independent review): 7.3 months | Objective response rate ([1]; RECIST 1.1, independent review): 19% | PFS Number of Events ([1]; RECIST 1.1, independent review): 307 | PFS Number of Events (%) ([1]; RECIST 1.1, independent review): (64) % | Number of deaths ([1]; in vivo): 351 | Number of deaths (%) ([1]; in vivo): (73) % | Objective response rate ([1]; mRECIST, independent review): 41% | PFS Number of Events ([1]; mRECIST, independent review): 311 | PFS Number of Events (%) ([1]; mRECIST, independent review): (65) % | adverse reactions leading to dose reduction or interruption [2]: about 62% | discontinuation due to fatigue [2]: 1% | discontinuation due to hepatic encephalopathy [2]: 1% | discontinuation due to hepatic failure [2]: 1% | discontinuation due to hyperbilirubinemia [2]: 1% | dose reduction or interruption due to decreased appetite [2]: 8% | dose reduction or interruption due to diarrhea [2]: 8% | dose reduction or interruption due to fatigue [2]: 9% | dose reduction or interruption due to hypertension [2]: 6% | dose reduction or interruption due to palmar-plantar erythrodysesthesia syndrome [2]: 5% | dose reduction or interruption due to proteinuria [2]: 7% | serious adverse reaction: ascites [2]: 3% | serious adverse reaction: decreased appetite [2]: 2% | serious adverse reaction: hepatic encephalopathy [2]: 4% | serious adverse reaction: hepatic failure [2]: 3% | treatment discontinuation due to adverse reactions [2]: 20% | logP (Partition coefficient): 3.3
